Publication PMC2921063 (Cancer Chemotherapy and Pharmacology, 2010)

How the values were obtained:
rituximab = assay: Cognate antibody binding to peptide beads, rituximab; settings: 10 μm TentaGel beads; flow cytometry and fluorescent microscopy
alemtuzumab = assay: Cognate antibody binding to peptide beads, alemtuzumab; settings: 10 μm TentaGel beads; flow cytometry and fluorescent microscopy
[1] = Alemtuzumab bead-based detection in normal human serum; format: binding; settings: alemtuzumab titrated into normal human serum; fluorescent secondary anti-human IgG; flow cytometry

ACPTSNPSLCGGGS [pRTX-10T]
antibody binding to peptide beads (rituximab): Specific cognate antibody binding was confirmed

ACGSLSPSSCGGGS [pCp-1T]
antibody binding to peptide beads (alemtuzumab): Specific cognate antibody binding was confirmed

alemtuzumab: anti-CD52 monoclonal antibody (Genzyme)
bead fluorescence vs alemtuzumab concentration [1]: fluorescent signals correlated with the alemtuzumab concentration
